The experiment deals with Breast cancer type 1 susceptibility protein (Homo sapiens, UniProt P38398). Put plainly: Inhibition of BRCA1 assessed as BRCT-BACH1 interaction.
Chain of Breast cancer type 1 susceptibility protein (P38398 whole entry): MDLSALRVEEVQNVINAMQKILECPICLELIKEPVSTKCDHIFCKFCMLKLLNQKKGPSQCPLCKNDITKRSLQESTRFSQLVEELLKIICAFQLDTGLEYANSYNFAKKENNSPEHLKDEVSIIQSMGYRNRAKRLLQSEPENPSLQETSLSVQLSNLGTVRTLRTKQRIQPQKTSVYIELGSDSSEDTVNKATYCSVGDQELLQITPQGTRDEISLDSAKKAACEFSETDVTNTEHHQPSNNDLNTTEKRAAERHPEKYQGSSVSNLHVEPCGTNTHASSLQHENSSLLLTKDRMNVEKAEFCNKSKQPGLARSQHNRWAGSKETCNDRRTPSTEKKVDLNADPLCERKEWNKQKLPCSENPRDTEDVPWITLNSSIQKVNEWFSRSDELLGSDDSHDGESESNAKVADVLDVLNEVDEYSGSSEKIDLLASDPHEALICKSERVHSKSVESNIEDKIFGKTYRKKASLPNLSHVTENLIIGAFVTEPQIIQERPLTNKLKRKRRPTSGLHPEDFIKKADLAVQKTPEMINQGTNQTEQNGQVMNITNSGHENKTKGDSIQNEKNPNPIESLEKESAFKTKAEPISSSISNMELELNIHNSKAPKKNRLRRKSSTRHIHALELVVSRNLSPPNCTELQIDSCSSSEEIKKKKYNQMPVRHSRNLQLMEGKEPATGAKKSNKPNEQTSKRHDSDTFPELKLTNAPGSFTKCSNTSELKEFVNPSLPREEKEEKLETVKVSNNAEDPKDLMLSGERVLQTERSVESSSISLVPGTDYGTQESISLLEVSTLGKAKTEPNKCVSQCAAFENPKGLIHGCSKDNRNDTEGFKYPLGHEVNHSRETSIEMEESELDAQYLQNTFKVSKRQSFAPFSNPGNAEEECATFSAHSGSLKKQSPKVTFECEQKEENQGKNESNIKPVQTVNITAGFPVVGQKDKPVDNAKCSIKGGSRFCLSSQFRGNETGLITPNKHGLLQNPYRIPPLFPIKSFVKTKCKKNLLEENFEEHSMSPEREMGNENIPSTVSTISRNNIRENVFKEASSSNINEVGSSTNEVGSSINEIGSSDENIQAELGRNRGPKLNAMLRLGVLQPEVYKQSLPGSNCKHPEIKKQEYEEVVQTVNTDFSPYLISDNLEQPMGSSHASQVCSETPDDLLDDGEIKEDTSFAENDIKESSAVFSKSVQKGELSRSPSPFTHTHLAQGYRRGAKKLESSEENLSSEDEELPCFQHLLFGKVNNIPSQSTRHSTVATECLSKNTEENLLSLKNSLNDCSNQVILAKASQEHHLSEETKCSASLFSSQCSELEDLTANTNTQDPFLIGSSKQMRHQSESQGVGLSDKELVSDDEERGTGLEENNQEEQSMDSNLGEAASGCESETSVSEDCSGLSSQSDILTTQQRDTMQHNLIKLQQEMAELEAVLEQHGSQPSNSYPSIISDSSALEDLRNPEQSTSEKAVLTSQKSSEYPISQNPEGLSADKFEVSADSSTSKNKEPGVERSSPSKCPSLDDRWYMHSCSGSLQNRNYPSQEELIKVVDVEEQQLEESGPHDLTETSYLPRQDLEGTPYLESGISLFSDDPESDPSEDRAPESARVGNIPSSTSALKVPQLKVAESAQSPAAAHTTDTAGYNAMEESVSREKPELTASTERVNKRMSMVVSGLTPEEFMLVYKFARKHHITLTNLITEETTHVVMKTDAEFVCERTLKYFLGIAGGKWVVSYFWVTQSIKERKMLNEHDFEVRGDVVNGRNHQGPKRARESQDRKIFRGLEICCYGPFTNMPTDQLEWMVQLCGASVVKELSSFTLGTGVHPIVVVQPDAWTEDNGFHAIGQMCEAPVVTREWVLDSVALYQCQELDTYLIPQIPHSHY
In the case of `O=C1c2ccccc2S(=O)(=O)c2cc(N3CCC(Cc4ccccc4)CC3)ccc21`, the Ki was 38 µM.

Consider `NC(=O)C1CCN(c2ccc3c(c2)S(=O)(=O)c2ccccc2C3=O)CC1`, for which the inhibitory constant (Ki) turned out to be 30 µM. For the molecule `CC1CCN(c2ccc3c(c2)S(=O)(=O)c2ccccc2C3=O)CC1`, the inhibition constant (Ki) is 39 µM.
